Source: patent US20100298141A1, “SUBSTITUTED PYRIDINE N-OXIDE HERBICIDES” (E. I. DU PONT DE NEMOURS AND COMPANY, priority 2007, published 2010)

How the values were obtained:
[1] = system: corn; assay: Test C pre-/postemergence test; format: in vivo, Zea mays; conditions: for Plant response rating, Corn: scale 0 to 100, 0 no effect, 100 complete control
Method in brief: (§1)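 Test chemicals were formulated with surfactant in a non-phytotoxic solvent and sprayed both on freshly planted seeds (preemergence) and on 1- to 4-leaf plants of 2–18 cm (postemergence). Flooded-paddy pots received compound directly into 3 cm of standing water, maintained for the test.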

[2] = system: barnyardgrass; assay: Test C flooded paddy test; format: in vivo, Echinochloa crus-galli; conditions: Flood
Method in brief: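 Flooded 3 cm over soil; compound into paddy water; depth kept constant. Greenhouse 13–15 d.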

[3] = system: giant foxtail; assay: Test C pre-/postemergence test; format: in vivo, Setaria faberii; conditions: for Plant response rating, Foxtail, Giant: scale 0 to 100, 0 no effect, 100 complete control
Method in brief: as §1

[4] = system: velvetleaf; assay: Test A pre-/postemergence greenhouse test; format: in vivo, Abutilon theophrasti; conditions: for Velvetleaf plant response rating: 0 to 100 scale
Method in brief: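 Each test compound, dissolved in a non-phytotoxic solvent mixture with surfactant, was sprayed directly onto seeded soil (loam/sand blend) and, at the same moment, onto seedlings carrying one to two leaves. Around ten greenhouse days later, plants were rated visually for injury relative to untreated controls.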

[5] = system: velvetleaf; assay: Test C pre-/postemergence test; format: in vivo, Abutilon theophrasti; conditions: Postemergence; for Plant response rating, Velvetleaf: scale 0 to 100, 0 no effect, 100 complete control
Method in brief: as §1

[6] = system: soybean; assay: Test C pre-/postemergence test; format: in vivo, Glycine max; conditions: for Plant response rating, Soybean: scale 0 to 100, 0 no effect, 100 complete control
Method in brief: as §1

[7] = system: johnsongrass; assay: Test C pre-/postemergence test; format: in vivo, Sorghum halepense; conditions: for Johnsongrass plant response rating: preemergence, scale 0 (no effect) to 100 (complete control); for Plant response rating, Johnsongrass: scale 0 to 100, 0 no effect, 100 complete control
Method in brief: as §1

[8] = system: Italian ryegrass; assay: Test C pre-/postemergence test; format: in vivo, Lolium multiflorum; conditions: for Plant response rating, Ryegrass, Italian: scale 0 to 100, 0 no effect, 100 complete control
Method in brief: as §1

[9] = system: cocklebur; assay: Test C pre-/postemergence test; format: in vivo, Xanthium strumarium; conditions: for Plant response rating, Cocklebur: scale 0 to 100, 0 no effect, 100 complete control
Method in brief: as §1

[10] = system: morningglory; assay: Test C pre-/postemergence test; format: in vivo, Ipomoea coccinea; conditions: for Plant response rating, Morningglory: scale 0 to 100, 0 no effect, 100 complete control
Method in brief: as §1

[11] = system: green foxtail; assay: Test C pre-/postemergence test; format: in vivo, Setaria viridis; conditions: for Plant response rating, Foxtail, Green: scale 0 to 100, 0 no effect, 100 complete control
Method in brief: as §1

[12] = system: downy brome; assay: Test C pre-/postemergence test; format: in vivo, Bromus tectorum; conditions: for Plant response rating, Bromegrass, Downy: scale 0 to 100, 0 no effect, 100 complete control
Method in brief: as §1

[13] = system: catchweed bedstraw; assay: Test C pre-/postemergence test; format: in vivo, Galium aparine
Method in brief: as §1

[14] = system: woolly cupgrass; assay: Test C pre-/postemergence test; format: in vivo, Eriochloa villosa; conditions: for Plant response rating, Cupgrass, Woolly: scale 0 to 100, 0 no effect, 100 complete control
Method in brief: as §1

[15] = system: blackgrass; assay: Test C pre-/postemergence test; format: in vivo, Alopecurus myosuroides; conditions: for Plant response rating, Blackgrass: scale 0 to 100, 0 no effect, 100 complete control
Method in brief: as §1

[16] = system: wild oat; assay: Test C pre-/postemergence test; format: in vivo, Avena fatua; conditions: for Plant response rating, Oat, Wild: scale 0 to 100, 0 no effect, 100 complete control
Method in brief: as §1

[17] = 31 g ai/ha, Preemergence, scale 0 to 100
[18] = 62 g ai/ha, preemergence, scale 0 (no effect) to 100 (complete control)
[19] = preemergence, 125 g ai/ha, scale 0 (no effect) to 100 (complete control)

Cn1nc(C(F)(F)F)c(C[S+]([O-])c2cccc[n+]2[O-])c1OC(F)F (stereo not drawn) [Compound 3]
Corn plant response rating [1, 17]: 50 | Corn plant response rating [1, 18]: 75 | Plant response rating (0 to 100), Corn ([1]; Postemergence, 31 g ai/ha): 0 | Plant response rating, Corn ([1]; Postemergence, 62 g ai/ha): 5 | Plant response rating, Corn ([1]; Postemergence, 125 g ai/ha): 5 | Plant response rating, Corn ([1]; Postemergence, 250 g ai/ha): 5 | Plant response rating (0 to 100), Corn ([1]; Preemergence, 250 g ai/ha): 98 | Corn plant response rating [1, 19]: 90 | Plant response rating, Barnyardgrass ([2]; 31 g ai/ha, scale 0 to 100 (0 no effect, 100 complete control)): 0 | Plant response rating, Barnyardgrass ([2]; 62 g ai/ha, scale 0 to 100, 0 no effect, 100 complete control, 13 to 15 days): 50 | Plant response rating, Barnyardgrass ([2]; 125 g ai/ha, scale 0 to 100, 0 no effect, 100 complete control, 13 to 15 days): 75 | Plant response rating, Barnyardgrass ([2]; 250 g ai/ha, scale 0 to 100 (0 no effect, 100 complete control)): 85 | Foxtail, Giant plant response rating [3, 17]: 60 | Foxtail, Giant plant response rating [3, 18]: 90 | Plant response rating (0 to 100), Foxtail, Giant ([3]; Postemergence, 31 g ai/ha): 0 | Plant response rating, Foxtail, Giant ([3]; Postemergence, 62 g ai/ha): 40 | Plant response rating, Foxtail, Giant ([3]; Postemergence, 125 g ai/ha): 50 | Plant response rating, Foxtail, Giant ([3]; Postemergence, 250 g ai/ha): 55 | Plant response rating (0 to 100), Foxtail, Giant ([3]; Preemergence, 250 g ai/ha): 100 | Foxtail, Giant plant response rating [3, 19]: 98 | Velvetleaf plant response rating ([4]; Postemergence, 125 g ai/ha, 0 is no effect, 100 is complete control): 50 | Velvetleaf plant response rating ([4]; Postemergence, 500 g ai/ha, 0 is no effect, 100 is complete control): 90 | Velvetleaf plant response rating ([4]; Preemergence, 125 g ai/ha, 0 no effect, 100 complete control): 70 | Plant response rating, Velvetleaf ([4]; Preemergence, 500 g ai/ha, 0 to 100 scale where 0 is no effect and 100 is complete control): 90 | Plant response rating (0 to 100), Velvetleaf ([5]; 31 g ai/ha): 10 | Plant response rating (0 to 100), Velvetleaf ([5]; 62 g ai/ha): 10 | Plant response rating, Velvetleaf ([5]; 125 g ai/ha): 60 | Plant response rating, Velvetleaf ([5]; 250 g ai/ha): 65 | Soybean plant response rating [6, 17]: 5 | Soybean plant response rating [6, 18]: 30 | Plant response rating (0 to 100), Soybean ([6]; Postemergence, 31 g ai/ha): 40 | Plant response rating (0 to 100), Soybean ([6]; Postemergence, 62 g ai/ha): 60 | Plant response rating, Soybean ([6]; Postemergence, 125 g ai/ha): 70 | Plant response rating, Soybean ([6]; Postemergence, 250 g ai/ha): 85 | Plant response rating (0 to 100), Soybean ([6]; Preemergence, 250 g ai/ha): 95 | Soybean plant response rating [6, 19]: 95 | Johnsongrass plant response rating ([7]; 62 g ai/ha): 98 | Plant response rating (0 to 100), Johnsongrass ([7]; Postemergence, 31 g ai/ha): 0 | Plant response rating, Johnsongrass ([7]; Postemergence, 62 g ai/ha): 0 | Plant response rating, Johnsongrass ([7]; Postemergence, 125 g ai/ha): 20 | Plant response rating, Johnsongrass ([7]; Postemergence, 250 g ai/ha): 20 | Plant response rating (0 to 100), Johnsongrass ([7]; Preemergence, 250 g ai/ha): 100 | Johnsongrass plant response rating ([7]; 125 g ai/ha): 100 | Ryegrass, Italian plant response rating [8, 17]: 60 | Ryegrass, Italian plant response rating [8, 18]: 100 | Plant response rating (0 to 100), Ryegrass, Italian ([8]; Postemergence, 31 g ai/ha): 0 | Plant response rating (0 to 100), Ryegrass, Italian ([8]; Postemergence, 62 g ai/ha): 0 | Plant response rating, Ryegrass, Italian ([8]; Postemergence, 125 g ai/ha): 0 | Plant response rating, Ryegrass, Italian ([8]; Postemergence, 250 g ai/ha): 40 | Plant response rating (0 to 100), Ryegrass, Italian ([8]; Preemergence, 250 g ai/ha): 100 | Ryegrass, Italian plant response rating [8, 19]: 100 | Cocklebur plant response rating [9, 17]: 0 | Cocklebur plant response rating [9, 18]: 0 | Plant response rating (0 to 100), Cocklebur ([9]; Postemergence, 31 g ai/ha): 0 | Plant response rating, Cocklebur ([9]; Postemergence, 62 g ai/ha): 0 | Plant response rating, Cocklebur ([9]; Postemergence, 125 g ai/ha): 0 | Plant response rating, Cocklebur ([9]; Postemergence, 250 g ai/ha): 10 | Plant response rating (0 to 100), Cocklebur ([9]; Preemergence, 250 g ai/ha): 5 | Cocklebur plant response rating [9, 19]: 0 | Morningglory plant response rating [10, 17]: 50 | Morningglory plant response rating [10, 18]: 90 | Plant response rating (0 to 100), Morningglory ([10]; Postemergence, 31 g ai/ha): 5 | Plant response rating, Morningglory ([10]; Postemergence, 62 g ai/ha): 50 | Plant response rating, Morningglory ([10]; Postemergence, 125 g ai/ha): 50 | Plant response rating, Morningglory ([10]; Postemergence, 250 g ai/ha): 50 | Plant response rating (0 to 100), Morningglory ([10]; Preemergence, 250 g ai/ha): 100 | Morningglory plant response rating [10, 19]: 100 | Foxtail, Green plant response rating [11, 17]: 75 | Foxtail, Green plant response rating [11, 18]: 85 | Plant response rating (0 to 100), Foxtail, Green ([11]; Postemergence, 31 g ai/ha): 0 | Plant response rating, Foxtail, Green ([11]; Postemergence, 62 g ai/ha): 0 | Plant response rating, Foxtail, Green ([11]; Postemergence, 125 g ai/ha): 10 | Plant response rating, Foxtail, Green ([11]; Postemergence, 250 g ai/ha): 55 | Plant response rating (0 to 100), Foxtail, Green ([11]; Preemergence, 250 g ai/ha): 100 | Foxtail, Green plant response rating [11, 19]: 98 | Bromegrass, Downy plant response rating [12, 17]: 0 | Bromegrass, Downy plant response rating [12, 18]: 60 | Plant response rating (0 to 100), Bromegrass, Downy ([12]; Postemergence, 31 g ai/ha): 0 | Plant response rating, Bromegrass, Downy ([12]; Postemergence, 62 g ai/ha): 0 | Plant response rating, Bromegrass, Downy ([12]; Postemergence, 125 g ai/ha): 0 | Plant response rating, Bromegrass, Downy ([12]; Postemergence, 250 g ai/ha): 0 | Plant response rating (0 to 100), Bromegrass, Downy ([12]; Preemergence, 250 g ai/ha): 100 | Bromegrass, Downy plant response rating [12, 19]: 98 | Galium plant response rating [13, 17]: 0 | Galium plant response rating [13, 18]: 0 | Plant response rating (0 to 100), Galium ([13]; Preemergence, 250 g ai/ha): 100 | Galium plant response rating [13, 19]: 95 | Cupgrass, Woolly plant response rating [14, 17]: 60 | Cupgrass, Woolly plant response rating [14, 18]: 60 | Plant response rating (0 to 100), Cupgrass, Woolly ([14]; Postemergence, 31 g ai/ha): 0 | Plant response rating, Cupgrass, Woolly ([14]; Postemergence, 62 g ai/ha): 0 | Plant response rating, Cupgrass, Woolly ([14]; Postemergence, 125 g ai/ha): 20 | Plant response rating, Cupgrass, Woolly ([14]; Postemergence, 250 g ai/ha): 40 | Plant response rating (0 to 100), Cupgrass, Woolly ([14]; Preemergence, 250 g ai/ha): 100 | Cupgrass, Woolly plant response rating [14, 19]: 85 | Blackgrass plant response rating [15, 17]: 70 | Blackgrass plant response rating [15, 18]: 70 | Plant response rating (0 to 100), Blackgrass ([15]; Postemergence, 31 g ai/ha): 0 | Plant response rating, Blackgrass ([15]; Postemergence, 62 g ai/ha): 0 | Plant response rating, Blackgrass ([15]; Postemergence, 125 g ai/ha): 0 | Plant response rating, Blackgrass ([15]; Postemergence, 250 g ai/ha): 20 | Plant response rating (0 to 100), Blackgrass ([15]; Preemergence, 250 g ai/ha): 100 | Blackgrass plant response rating [15, 19]: 100 | Oat, Wild plant response rating [16, 17]: 30 | Oat, Wild plant response rating [16, 18]: 40 | Plant response rating (0 to 100), Oat, Wild ([16]; Postemergence, 31 g ai/ha): 0 | Plant response rating, Oat, Wild ([16]; Postemergence, 62 g ai/ha): 0 | Plant response rating, Oat, Wild ([16]; Postemergence, 125 g ai/ha): 0 | Plant response rating, Oat, Wild ([16]; Postemergence, 250 g ai/ha): 0 | Plant response rating (0 to 100), Oat, Wild ([16]; Preemergence, 250 g ai/ha): 100 | Oat, Wild plant response rating [16, 19]: 80
